# Experimental data published in US20100241219A1, “MEDICAMENT DELIVERY ARTICLE, ACCESSORY & SYSTEM” (ABBEYMOOR MEDICAL , INC, priority 2005, published 2010).
# Columns and labels:
# [1] = Dye penetration from polyurethane coating on silicone sheets into calf liver tissue; format: in vitro ADME; settings: 1% dye in TPU matrix on silicone rubber sheet placed against calf liver for 24 or 48 hours
# Method: Mitoxantrone, and ciprofloxacin were likewise tested.
# Dyes and drugs were first coated onto silicone rubber sheets as droplets, and dried at 70° C. overnight. To gain a first approximation of the ability of the dyes to penetrate tissue, the sheets were placed against the outer membrane of calf liver, either for 24 or 48 hours. The tissue was placed on top of the sheet and supplied with nothing more that the pressure of the tissue against the sheet.
# [2] = Dye penetration from coated stents into excised human prostate tissue; settings: dye bands on stent in excised prostate, 37° C., after 48 hours
# Source text: As to materials, acidic, basic or lipophilic dyes, with molecular weights in the range of 3-400, were used, including: crystal violet (MW 408); basic Nile blue (MW 300); Nile red lipophilic; oil red O lipophilic; erythrosin (MW 890) acidic; and, methylene blue (MW 319) acidic. Mitoxantrone, and ciprofloxacin were likewise tested. The dyes and agents were mixed in a thermoplastic polyurethane (TPU) matrix comprising of 30/70 weight ratio of Carbothane® 72D, an aliphatic, polycarbonate based TPU, to Tecophil®, a hydrophilic, aliphatic, polyether-based TPU (Noveon, Inc.) in a 50/50 mixture of DMAC and THF. The polymers were prepared, 5% by weight, with dyes or agents added to the mixture as an additional 1% by weight.
# Human prostate tissue was obtain postmortem, and within 24 hours thereof, and flash froze. The tissue was thereafter thawed at ambient temperature, and used within 12 hours. The tissue was not fixed.
# Six dyes, namely, methylene blue, crystal violet, a combination of Nile blue and Nile red, oil red O, and erythrosin were coated onto two stents in the form of 3 mm bands or rings. One stent was coated with both mitoxantrone, and ciprofloxacin. Thereafter, the stents were placed in a phosphate buffered Ringer's solution with 1% virocide into excised prostates for 24 and 48 hours at 37° C. […]
penetration / staining of liver tissue [1],staining of prostatic tissue [2],SMILES
only mildly stained the tissue,staining the least,Cc1ccc(C)c(N=Nc2cc(C)c(N=Nc3c(O)ccc4ccccc34)cc2C)c1 [oil red O]
only mildly stained the tissue,–,CCN(CC)c1ccc2nc3c4ccccc4c(=O)cc-3oc2c1 [Nile red]
–,approximately equivalent,O.O=C([O-])c1ccccc1-c1c2cc(I)c(=O)c(I)c-2oc2c(I)c([O-])c(I)cc12.[Na+].[Na+] [erythrosin]

SMILES,penetration / staining of liver tissue [1],staining of prostatic tissue [2]
CN(C)c1ccc(C(=C2C=CC(=[N+](C)C)C=C2)c2ccc(N(C)C)cc2)cc1 [crystal violet],penetrated the tissue to the greatest extent,–
